{"source": "patent US8758816B2", "about": "“Compositions comprising azelastine and methods of use thereof” (priority 2004, dated 2014)", "tested_on": "patients with seasonal allergic rhinitis (SAR)", "experiment": "MP 428 study: adverse events, Safety Population", "type": "in vivo, human", "experimental": "A two-week, randomized, double-blind study, which evaluated the effects of the co-administration of ASTELIN® (azelastine hydrochloride (HCl)) and FLONASE® (fluticasone propionate) compared to either product alone in patients with seasonal allergic rhinitis (SAR) was conducted during the 2006 Texas mountain cedar season. After a 5-day placebo lead-in period, 151 patients with moderate-to-severe allergic rhinitis symptoms were randomized to either: (1) (49 total patients) ASTELIN® (azelastine hydrochloride (HCl)) plus placebo saline nasal spray 2 sprays per nostril, 15 minutes apart, twice daily (AM & PM); (2) (50 total patients) FLONASE® (fluticasone propionate) plus placebo saline nasal spray, 2 sprays per nostril, 15 minutes apart, once daily (AM) and two sessions of placebo saline nasal spray, 2 sprays per nostril, 15 minutes apart (PM); or (3) (52 total patients) the co-administration of ASTELIN® (azelastine hydrochloride (HCl)) 2 sprays per nostril plus FLONASE® (fluticasone propionate) 2 sprays per nostril (AM), 15 minutes apart, and ASTELIN® (azelastine hydrochloride (HCl)) 2 sprays per nostril plus placebo saline nasal spray, 15 minutes apart, (PM) for a 2-week double-blind treatment period.\nThe most common adverse events (AEs) were bitter taste (8.2% in ASTELIN® (azelastine hydrochloride (HCl)) group, 2.0% in FLONASE® (fluticasone propionate) group, 13.5% in co-administration group) and headache (4.1% in ASTELIN® (azelastine hydrochloride (HCl)) group, 4.0% in FLONASE® (fluticasone propionate) group, 5.8% in co-administration group). No other AE was reported by more than one patient in any treatment group. There were no discontinuations due to AEs.", "key": {"[1]": {"settings": "Possibly related to study drug, Safety Population"}, "[2]": {"settings": "Probably related to study drug, Safety Population"}, "[3]": {"settings": "Total (possibly or probably related), Safety Population"}}, "note": "Where a name gives a salt, the structure may show the parent alone."}
{"compound": "CN1CCCC(n2nc(Cc3ccc(Cl)cc3)c3ccccc3c2=O)CC1", "note": "(racemic) [Azelastine, (±)-1-(2H)-phthalazinone, 4-[(4-chlorophenyl)methyl]-2-(hexahydro-1-methyl-1H-azepin-4-yl)-, mono-hydrochloride]", "values": [{"measurement": "Primary Reason for Discontinuation From Study: Adverse Event", "setting": "All Randomized Patients", "value": "0 (0.0) N (%)"}, {"measurement": "Number (%) Patients With Treatment-Related AEs by Maximum Severity", "setting": "Mild", "value": "1 (2.0) Number (%)"}, {"measurement": "Number (%) Patients With Treatment-Related AEs by Maximum Severity", "setting": "Moderate", "value": "0 (0.0) Number (%)"}, {"measurement": "Treatment-Related Adverse Events: Any Adverse Event", "setting": "[1]", "value": "1 (2.0) No. of Patients (%)"}, {"measurement": "Treatment-Related Adverse Events: DRY MOUTH", "setting": "[1]", "value": "0 (0.0) No. of Patients (%)"}, {"measurement": "Treatment-Related Adverse Events: DYSGEUSIA", "setting": "[1]", "value": "1 (2.0) No. of Patients (%)"}, {"measurement": "Treatment-Related Adverse Events: EPISTAXIS", "setting": "[1]", "value": "0 (0.0) No. of Patients (%)"}, {"measurement": "Treatment-Related Adverse Events: GASTROINTESTINAL DISORDERS, Any Preferred Term", "setting": "[1]", "value": "1 (2.0) No. of Patients (%)"}, {"measurement": "Treatment-Related Adverse Events: HEADACHE", "setting": "[1]", "value": "0 (0.0) No. of Patients (%)"}, {"measurement": "Treatment-Related Adverse Events: NASAL DISCOMFORT", "setting": "[1]", "value": "0 (0.0) No. of Patients (%)"}, {"measurement": "Treatment-Related Adverse Events: NERVOUS SYSTEM DISORDERS, Any Preferred Term", "setting": "[1]", "value": "0 (0.0) No. of Patients (%)"}, {"measurement": "Treatment-Related Adverse Events: RESPIRATORY, THORACIC AND MEDIASTINAL DISORDERS, Any Preferred Term", "setting": "[1]", "value": "0 (0.0) No. of Patients (%)"}, {"measurement": "Treatment-Related Adverse Events: STOMACH DISCOMFORT", "setting": "[1]", "value": "0 (0.0) No. of Patients (%)"}, {"measurement": "Treatment-Related Adverse Events: Any Adverse Event", "setting": "[2]", "value": "3 (6.1) No. of Patients (%)"}, {"measurement": "Treatment-Related Adverse Events: DRY MOUTH", "setting": "[2]", "value": "0 (0.0) No. of Patients (%)"}, {"measurement": "Treatment-Related Adverse Events: DYSGEUSIA", "setting": "[2]", "value": "3 (6.1) No. of Patients (%)"}, {"measurement": "Treatment-Related Adverse Events: EPISTAXIS", "setting": "[2]", "value": "0 (0.0) No. of Patients (%)"}, {"measurement": "Treatment-Related Adverse Events: GASTROINTESTINAL DISORDERS, Any Preferred Term", "setting": "[2]", "value": "3 (6.1) No. of Patients (%)"}, {"measurement": "Treatment-Related Adverse Events: HEADACHE", "setting": "[2]", "value": "0 (0.0) No. of Patients (%)"}, {"measurement": "Treatment-Related Adverse Events: NASAL DISCOMFORT", "setting": "[2]", "value": "0 (0.0) No. of Patients (%)"}, {"measurement": "Treatment-Related Adverse Events: NERVOUS SYSTEM DISORDERS, Any Preferred Term", "setting": "[2]", "value": "0 (0.0) No. of Patients (%)"}, {"measurement": "Treatment-Related Adverse Events: RESPIRATORY, THORACIC AND MEDIASTINAL DISORDERS, Any Preferred Term", "setting": "[2]", "value": "0 (0.0) No. of Patients (%)"}, {"measurement": "Treatment-Related Adverse Events: STOMACH DISCOMFORT", "setting": "[2]", "value": "0 (0.0) No. of Patients (%)"}, {"measurement": "Number (%) Patients With Any AEs: All Treatment-Related AEs", "setting": "Safety Population", "value": "4 (8.2) Number (%)"}, {"measurement": "Number (%) of Deaths", "setting": "Safety Population", "value": "0 (0.0) Number (%)"}, {"measurement": "Number (%) of Patients With Serious AEs", "setting": "Safety Population", "value": "0 (0.0) Number (%)"}, {"measurement": "Number of Adverse Events Reported: All Treatment-Emergent AEs", "setting": "Safety Population", "value": 9}, {"measurement": "Number of Adverse Events Reported: All Treatment-Related AEs", "setting": "Safety Population", "value": 4}, {"measurement": "Number (%) Patients With Treatment-Related AEs by Maximum Severity", "setting": "Severe", "value": "3 (6.1) Number (%)"}, {"measurement": "Treatment-Emergent AE: Any Adverse Event", "setting": "Total", "value": "8 (16.3) No. of Patients (%)"}, {"measurement": "Treatment-Emergent AE: DRY MOUTH", "setting": "Total", "value": "0 (0.0) No. of Patients (%)"}, {"measurement": "Treatment-Emergent AE: DYSGEUSIA", "setting": "Total", "value": "4 (8.2) No. of Patients (%)"}, {"measurement": "Treatment-Emergent AE: EAR AND LABYRINTH DISORDERS, Any Preferred Term", "setting": "Total", "value": "1 (2.0) No. of Patients (%)"}, {"measurement": "Treatment-Emergent AE: EAR PAIN", "setting": "Total", "value": "1 (2.0) No. of Patients (%)"}, {"measurement": "Treatment-Emergent AE: EPISTAXIS", "setting": "Total", "value": "0 (0.0) No. of Patients (%)"}, {"measurement": "Treatment-Emergent AE: GASTROINTESTINAL DISORDERS, Any Preferred Term", "setting": "Total", "value": "4 (8.2) No. of Patients (%)"}, {"measurement": "Treatment-Emergent AE: HEADACHE", "setting": "Total", "value": "2 (4.1) No. of Patients (%)"}, {"measurement": "Treatment-Emergent AE: MUSCULOSKELETAL AND CONNECTIVE TISSUE DISORDERS, Any Preferred Term", "setting": "Total", "value": "1 (2.0) No. of Patients (%)"}, {"measurement": "Treatment-Emergent AE: MYALGIA", "setting": "Total", "value": "0 (0.0) No. of Patients (%)"}, {"measurement": "Treatment-Emergent AE: NASAL DISCOMFORT", "setting": "Total", "value": "0 (0.0) No. of Patients (%)"}, {"measurement": "Treatment-Emergent AE: NECK PAIN", "setting": "Total", "value": "1 (2.0) No. of Patients (%)"}, {"measurement": "Treatment-Emergent AE: NERVOUS SYSTEM DISORDERS, Any Preferred Term", "setting": "Total", "value": "2 (4.1) No. of Patients (%)"}, {"measurement": "Treatment-Emergent AE: PHARYNGOLARYNGEAL PAIN", "setting": "Total", "value": "1 (2.0) No. of Patients (%)"}, {"measurement": "Treatment-Emergent AE: RESPIRATORY, THORACIC AND MEDIASTINAL DISORDERS, Any Preferred Term", "setting": "Total", "value": "1 (2.0) No. of Patients (%)"}, {"measurement": "Treatment-Emergent AE: STOMACH DISCOMFORT", "setting": "Total", "value": "0 (0.0) No. of Patients (%)"}, {"measurement": "Treatment-Related Adverse Events: Any Adverse Event", "setting": "[3]", "value": "4 (8.2) No. of Patients (%)"}, {"measurement": "Treatment-Related Adverse Events: DRY MOUTH", "setting": "[3]", "value": "0 (0.0) No. of Patients (%)"}, {"measurement": "Treatment-Related Adverse Events: DYSGEUSIA", "setting": "[3]", "value": "4 (8.2) No. of Patients (%)"}, {"measurement": "Treatment-Related Adverse Events: EPISTAXIS", "setting": "[3]", "value": "0 (0.0) No. of Patients (%)"}, {"measurement": "Treatment-Related Adverse Events: GASTROINTESTINAL DISORDERS, Any Preferred Term", "setting": "[3]", "value": "4 (8.2) No. of Patients (%)"}, {"measurement": "Treatment-Related Adverse Events: HEADACHE", "setting": "[3]", "value": "0 (0.0) No. of Patients (%)"}, {"measurement": "Treatment-Related Adverse Events: NASAL DISCOMFORT", "setting": "[3]", "value": "0 (0.0) No. of Patients (%)"}, {"measurement": "Treatment-Related Adverse Events: NERVOUS SYSTEM DISORDERS, Any Preferred Term", "setting": "[3]", "value": "0 (0.0) No. of Patients (%)"}, {"measurement": "Treatment-Related Adverse Events: RESPIRATORY, THORACIC AND MEDIASTINAL DISORDERS, Any Preferred Term", "setting": "[3]", "value": "0 (0.0) No. of Patients (%)"}, {"measurement": "Treatment-Related Adverse Events: STOMACH DISCOMFORT", "setting": "[3]", "value": "0 (0.0) No. of Patients (%)"}, {"measurement": "Treatment-Emergent AE: DRY MOUTH", "setting": "max severity Mild", "value": "0 (0.0) No. of Patients (%)"}, {"measurement": "Treatment-Emergent AE: DYSGEUSIA", "setting": "max severity Mild", "value": "1 (2.0) No. of Patients (%)"}, {"measurement": "Treatment-Emergent AE: EAR AND LABYRINTH DISORDERS, Any Preferred Term", "setting": "max severity Mild", "value": "0 (0.0) No. of Patients (%)"}, {"measurement": "Treatment-Emergent AE: EAR PAIN", "setting": "max severity Mild", "value": "0 (0.0) No. of Patients (%)"}, {"measurement": "Treatment-Emergent AE: EPISTAXIS", "setting": "max severity Mild", "value": "0 (0.0) No. of Patients (%)"}, {"measurement": "Treatment-Emergent AE: GASTROINTESTINAL DISORDERS, Any Preferred Term", "setting": "max severity Mild", "value": "1 (2.0) No. of Patients (%)"}, {"measurement": "Treatment-Emergent AE: HEADACHE", "setting": "max severity Mild", "value": "1 (2.0) No. of Patients (%)"}, {"measurement": "Treatment-Emergent AE: MUSCULOSKELETAL AND CONNECTIVE TISSUE DISORDERS, Any Preferred Term", "setting": "max severity Mild", "value": "1 (2.0) No. of Patients (%)"}, {"measurement": "Treatment-Emergent AE: MYALGIA", "setting": "max severity Mild", "value": "0 (0.0) No. of Patients (%)"}]}
